Measurements: PubChem BioAssay AID2060893 (Molecular Pharmacology Branch, DTP, NCI, 2025)

Tested on: K86415-001-R-J1-PDC complex spheroids, viability
Assay: Anticancer human tumor K86415-001-R-J1-PDC patient-derived lung adenocarcinoma cell line growth inhibition [RAS]
Settings: for viability, T/C: stronger effect = lower value; active = viability on the fitted dose curve at most 10% of control; inactive = the rest
In short: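 Tumour cells grown as complex spheroids with HUVEC endothelial cells and mesenchymal stem cells, treated with RAS pathway inhibitor combinations. Each agent spans half-log steps from near clinical Cmax, or 10 microM where Cmax is unknown.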

[1] = curve of first compound, second compound 0.0316 µM
[2] = curve of first compound, second compound 0.1 µM
[3] = curve of first compound, second compound 0.316 µM
[4] = curve of first compound, second compound 1 µM
[5] = second compound 0.0316 µM, first compound 0.0316 µM
[6] = second compound 0.0316 µM, first compound 0.1 µM
[7] = second compound 0.0316 µM, first compound 0.316 µM
[8] = second compound 0.0316 µM, first compound 1 µM
[9] = second compound 0.1 µM, first compound 0.0316 µM
[10] = second compound 0.1 µM, first compound 0.1 µM
[11] = second compound 0.1 µM, first compound 0.316 µM
[12] = second compound 0.1 µM, first compound 1 µM
[13] = second compound 0.316 µM, first compound 0.0316 µM
[14] = second compound 0.316 µM, first compound 0.1 µM
[15] = second compound 0.316 µM, first compound 0.316 µM
[16] = second compound 0.316 µM, first compound 1 µM
[17] = second compound 1 µM, first compound 0.0316 µM
[18] = second compound 1 µM, first compound 0.1 µM
[19] = second compound 1 µM, first compound 0.316 µM
[20] = second compound 1 µM, first compound 1 µM
[21] = curve of first compound, second compound 0.00316 µM
[22] = curve of first compound, second compound 0.01 µM
[23] = second compound 0.00316 µM, first compound 0.0316 µM
[24] = second compound 0.00316 µM, first compound 0.1 µM
[25] = second compound 0.00316 µM, first compound 0.316 µM
[26] = second compound 0.00316 µM, first compound 1 µM
[27] = second compound 0.00316 µM, first compound 3.16 µM
[28] = second compound 0.00316 µM, first compound 10 µM
[29] = second compound 0.01 µM, first compound 0.0316 µM
[30] = second compound 0.01 µM, first compound 0.1 µM
[31] = second compound 0.01 µM, first compound 0.316 µM
[32] = second compound 0.01 µM, first compound 1 µM
[33] = second compound 0.01 µM, first compound 3.16 µM
[34] = second compound 0.01 µM, first compound 10 µM
[35] = second compound 0.0316 µM, first compound 3.16 µM
[36] = second compound 0.0316 µM, first compound 10 µM
[37] = second compound 0.1 µM, first compound 3.16 µM
[38] = second compound 0.1 µM, first compound 10 µM
[39] = second compound 0.316 µM, first compound 3.16 µM
[40] = second compound 0.316 µM, first compound 10 µM
[41] = second compound 1 µM, first compound 3.16 µM
[42] = second compound 1 µM, first compound 10 µM
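Also: spheroids exposed to agents for seven days before readout.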

O=C(c1ccc(F)c(F)c1Nc1ccc(I)cc1F)N1CC(O)([C@@H]2CCCCN2)C1 + C#Cc1c(F)ccc2cc(O)cc(-c3ncc4c(N5CC6CCC(C5)N6)nc(OCC56CCCN5CC(F)C6)nc4c3F)c12
12.5 nM: IC50 [4]
< 3.16 nM: IC50 (curve of first compound, second compound 3.16 µM) | IC50 (curve of first compound, second compound 10 µM)
56 nM: IC50 [2]
64.2 nM: IC50 [1]
inactive: viability, T/C (second compound 0.0316 µM, first compound 0.00316 µM) 89% | viability, T/C (second compound 0.0316 µM, first compound 0.01 µM) 83.5% | viability, T/C [5] 67.7% | viability, T/C [6] 38% | viability, T/C [7] 19.8% | viability, T/C (second compound 0.1 µM, first compound 0.00316 µM) 88.1% | viability, T/C (second compound 0.1 µM, first compound 0.01 µM) 79.9% | viability, T/C [9] 61.3% | viability, T/C [10] 37% | viability, T/C [11] 22.2% | viability, T/C (second compound 0.316 µM, first compound 0.00316 µM) 74.5% | viability, T/C (second compound 0.316 µM, first compound 0.01 µM) 74.5% | viability, T/C [13] 52.2% | viability, T/C [14] 29.2% | viability, T/C [15] 17.2% | viability, T/C [16] 8.24% | viability, T/C (second compound 1 µM, first compound 0.00316 µM) 61.2% | viability, T/C (second compound 1 µM, first compound 0.01 µM) 54.9% | viability, T/C [17] 35.9% | viability, T/C [18] 22% | viability, T/C [19] 12.4% | viability, T/C (second compound 3.16 µM, first compound 0.00316 µM) 28.6% | viability, T/C (second compound 3.16 µM, first compound 0.01 µM) 32% | viability, T/C (second compound 3.16 µM, first compound 0.0316 µM) 20.6% | viability, T/C (second compound 3.16 µM, first compound 0.1 µM) 13.8% | viability, T/C (second compound 10 µM, first compound 0.00316 µM) 14.4% | viability, T/C (second compound 10 µM, first compound 0.01 µM) 13.1%
38.2 nM: IC50 [3]
active: viability, T/C [8] 8.49% | viability, T/C [12] 8.46% | viability, T/C [20] 5.88% | viability, T/C (second compound 3.16 µM, first compound 0.316 µM) 8.69% | viability, T/C (second compound 3.16 µM, first compound 1 µM) 3.9% | viability, T/C (second compound 10 µM, first compound 0.0316 µM) 9.68% | viability, T/C (second compound 10 µM, first compound 0.1 µM) 7.57% | viability, T/C (second compound 10 µM, first compound 0.316 µM) 4.87% | viability, T/C (second compound 10 µM, first compound 1 µM) 3%

NC1c2ccccc2OC12CCN(c1cnc3c(N4CCCc5ncccc54)n[nH]c3n1)CC2 (stereo not drawn) + C=CC(=O)N1CCN(c2nc(OCC3CCCN3C)nc3c(F)c(-c4nc(N)cc(C)c4C(F)(F)F)c(Cl)cc23)C(C)C1
active: viability, T/C [23] 7.58% | viability, T/C [24] 6.46% | viability, T/C [25] 4.66% | viability, T/C [26] 5.77% | viability, T/C [27] 4.88% | viability, T/C [28] 5.36% | viability, T/C [29] 7.19% | viability, T/C [30] 5.33% | viability, T/C [31] 4.69% | viability, T/C [32] 4.12% | viability, T/C [33] 4.26% | viability, T/C [34] 4.5% | viability, T/C [5] 6.59% | viability, T/C [6] 6.76% | viability, T/C [7] 4.64% | viability, T/C [8] 4.27% | viability, T/C [35] 4.76% | viability, T/C [36] 5.5% | viability, T/C [9] 5.65% | viability, T/C [10] 6.03% | viability, T/C [11] 4.11% | viability, T/C [12] 3.86% | viability, T/C [37] 4.33% | viability, T/C [38] 4.71% | viability, T/C [13] 6.32% | viability, T/C [14] 6.11% | viability, T/C [15] 4.53% | viability, T/C [16] 4.12% | viability, T/C [39] 6.47% | viability, T/C [40] 5.1% | viability, T/C [17] 5.95% | viability, T/C [18] 6.16% | viability, T/C [19] 5% | viability, T/C [20] 4.63% | viability, T/C [41] 5.74% | viability, T/C [42] 5.91%
< 31.6 nM: IC50 [21] | IC50 [22] | IC50 [1] | IC50 [2] | IC50 [3] | IC50 [4]

CC1(O)CCCC1n1c(=O)c(C(F)F)cc2cnc(NC3CCN(S(C)(=O)=O)CC3)nc21 (stereo not drawn) + C=CC(=O)N1CCN(c2nc(OCC3CCCN3C)nc3c(F)c(-c4nc(N)cc(C)c4C(F)(F)F)c(Cl)cc23)C(C)C1
< 31.6 nM: IC50 [21] | IC50 [22] | IC50 [1] | IC50 [2] | IC50 [3] | IC50 [4]
inactive: viability, T/C [23] 14.8% | viability, T/C [24] 16.9% | viability, T/C [25] 17.3% | viability, T/C [26] 20.2% | viability, T/C [27] 28.1% | viability, T/C [28] 5.41% | viability, T/C [29] 13.1% | viability, T/C [30] 12.6% | viability, T/C [31] 12.4% | viability, T/C [32] 12.3% | viability, T/C [33] 18.6% | viability, T/C [34] 5.34% | viability, T/C [5] 12.2% | viability, T/C [6] 10.1% | viability, T/C [7] 10.1% | viability, T/C [8] 14.8% | viability, T/C [35] 16.2% | viability, T/C [36] 4.92% | viability, T/C [9] 12.1% | viability, T/C [10] 10.8% | viability, T/C [11] 10.5% | viability, T/C [12] 11.5% | viability, T/C [37] 19.4% | viability, T/C [38] 4.11% | viability, T/C [13] 11.4% | viability, T/C [14] 11.6% | viability, T/C [15] 11.4% | viability, T/C [16] 11.4% | viability, T/C [39] 16.2% | viability, T/C [40] 5.89% | viability, T/C [17] 10.4% | viability, T/C [18] 10.3% | viability, T/C [19] 13.7% | viability, T/C [20] 14.7% | viability, T/C [41] 18.9% | viability, T/C [42] 5.93%

CC(C)n1nc(-c2ccc3oc(N)nc3c2)c2c(N)ncnc21
52.6 nM [middle of 4 runs]: IC50 (curve of compound)
inactive: viability, T/C (compound 0.000316 µM) 108% [middle of 4 runs] | viability, T/C (compound 0.001 µM) 104% [middle of 4 runs] | viability, T/C (compound 0.00316 µM) 104% [middle of 4 runs] | viability, T/C (compound 0.01 µM) 96.1% [middle of 4 runs] | viability, T/C (compound 0.0316 µM) 64.5% [middle of 4 runs] | viability, T/C (compound 0.1 µM) 32.2% [middle of 4 runs]
